Columns and labels:
bovine RNase A = target: T1, bovine RNase A (Bos taurus, UniProt P61823); conditions: measured under conditions employed here (Harper et al., Biochemistry 27: 219-226); cited from earlier work
T1 sequence (P61823 27-150): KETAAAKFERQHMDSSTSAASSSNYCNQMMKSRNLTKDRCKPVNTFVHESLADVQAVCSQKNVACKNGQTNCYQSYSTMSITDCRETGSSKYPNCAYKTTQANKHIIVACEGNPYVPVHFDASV

[1] = target: T2, human angiogenin variant D116N-angiogenin (Asn-116) (Homo sapiens, UniProt P03950, D140N); test: Cleavage of dinucleoside phosphates (HPLC method); format: biochemical; conditions: 30 mM Mes, pH 6.0, 30 mM NaCl, 0.1 mM dinucleoside phosphate, 37° C.
T2 construct: made in house; host or cells: E. coli W3110
Description: Activity toward the RNase substrates cytidyl (3'→5') adenosine (CpA) and uridyl (3'→5') adenosine (UpA) was determined using a sensitive HPLC method described previously (Shapiro et al., Biochemistry 25: 3527-3532 and 7255-7264 1986). Reaction mixture containing 30 mM 2-(N-morpholino) ethane sulfonic acid (Mes), pH 6.0, 30 mM NaCl and 0.1 mM dinucleoside phosphate were incubated with angiogenin (0.7-3.0 μM) at 37° C. Aliquots (15-20 μl) were removed at various times and injected onto an HPLC column (radial Pak C18; Waters Associates) equilibrated with 10 mM potassium phosphate, pH 7.0. Elution of reactants and products was accomplished using a linear gradient of methanol in 100 mM potassium phosphate pH 7.0 at a flow rate of 0.8 ml/minutes. Elution was monitored at 254 nm and the integrated areas of reactants and products used to calculate kcat /Km using the expression kcat /Km =1n {[S] o /[S]t }/[E]t.

T2 sequence (P03950 25-147 D140N): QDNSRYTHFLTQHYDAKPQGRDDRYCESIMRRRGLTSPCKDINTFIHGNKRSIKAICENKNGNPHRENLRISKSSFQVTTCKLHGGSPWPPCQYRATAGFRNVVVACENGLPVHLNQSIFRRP

SMILES: Nc1ccn([C@@H]2O[C@H](CO)[C@@H](OP(=O)(O)OC[C@H]3O[C@@H](n4cnc5c(N)ncnc54)[C@H](O)[C@@H]3O)[C@H]2O)c(=O)n1 [CpA, cytidyl (3'→5') adenosine]
- kcat /Km (bovine RNase A): 6e+06 M⁻¹ s⁻¹

SMILES: Nc1ncnc2c1ncn2[C@@H]1O[C@H](COP(=O)(O)O[C@H]2[C@@H](O)[C@H](n3ccc(=O)[nH]c3=O)O[C@@H]2CO)[C@@H](O)[C@H]1O [UpA, uridyl (3'→5') adenosine]
- kcat /Km [1]: 0.5 M^-1 s^-l
- kcat /Km (bovine RNase A): 4e+06 M⁻¹ s⁻¹

— patent publication US4900673A, “Mutant human angiogenin (angiogenesis factor with superior angiogenin activity) genes therefor and methods of expression” (President and Fellows of Harvard College, priority 1988, dated 1990)
